Patent publication US20140343000A1 (priority 2011, published 2014)

These compounds were tested on recombinant NL4-3 virus (Renilla luciferase in nef, Gag P373S; NLRluc) in MT-2 cells (assay: whole plant or invertebrate). Details: Renilla, NL43, luciferase activity in cells infected for 4-5 days with NLRluc recombinants, serial dilutions of inhibitor; class symbols (key in Table 1); read-out: EC50.
Assay type: cell-based, HIV
Method in brief: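 Read-out is Renilla luciferase, measured immediately after adding a premixed lysis/Dual Luciferase reagent. The reporter virus, NL4-3 with luciferase replacing part of nef plus Gag P373S, infected MT-2 cells for 4–5 days under serially diluted inhibitor.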
In the case of C=C(C)[C@@H]1CC[C@]2(NCC)CC[C@]3(C)[C@H](CC[C@@H]4[C@@]5(C)CC=C(c6ccc(C(=O)O)cc6)C(C)(C)[C@@H]5CC[C@]43C)[C@@H]12 [Example 180, 4-((1R,3aS,5aR,5bR,7aR,11aS,11bR,13aR,13bR)-3a-(ethylamino)-5a,5b,8,8,11a-pentamethyl-1-(prop-1-en-2-yl)-2,3,3a,4,5,5a,5b,6,7,7a,8,11,11a,11b,12,13,13a,13b-octadecahydro-1H-cyclopenta[a]chrysen-9-yl)benzoic acid], the EC50 is reported as < 100 nM. C=C(C)[C@@H]1CC[C@]2(NC(=O)C(C)N3CCS(=O)(=O)CC3)CC[C@]3(C)[C@H](CC[C@@H]4[C@@]5(C)CC=C(c6ccc(C(=O)O)cc6)C(C)(C)[C@@H]5CC[C@]43C)[C@@H]12 (stereo partly drawn) [Example 93, benzoic acid, 4-[(1R,3aS,5aR,5bR,7aR,11aS,11bR,13aR,13bR)-3a-[[2-(1,1-dioxido-4-thiomorpholinyl)-1-oxopropyl]amino]-2,3,3a,4,5,5a,5b,6,7,7a,8,11,11a,11b,12,13,13a,13b-octadecahydro-5a,5b,8,8,11a-pentamethyl-1-(1-methylethenyl)-1H-cyclopenta[a]chrysen-9-yl]] was tested, and the EC50 was < 100 nM. In the case of C=C(C)[C@@H]1CC[C@]2(NCCN3CCN(S(=O)(=O)Cc4ccccc4)CC3)CC[C@]3(C)[C@H](CC[C@@H]4[C@@]5(C)CC=C(c6ccc(C(=O)O)cc6)C(C)(C)[C@@H]5CC[C@]43C)[C@@H]12 [Example B41, 4-((1R,3aS,5aR,5bR,7aR,11aS,11bR,13aR,13bR)-3a-((2-(4-(benzylsulfonyl)piperazin-1-yl)ethyl)amino)-5a,5b,8,8,11a-pentamethyl-1-(prop-1-en-2-yl)-2,3,3a,4,5,5a,5b,6,7,7a,8,11,11a,11b,12,13,13a,13b-octadecahydro-1H-cyclopenta[a]chrysen-9-yl)benzoic acid], the EC50 is reported as < 100 nM. C=C(C)[C@@H]1CC[C@]2(NCCN3CCNCC3)CC[C@]3(C)[C@H](CC[C@@H]4[C@@]5(C)CC=C(c6ccc(C(=O)O)cc6)C(C)(C)[C@@H]5CC[C@]43C)[C@@H]12 [Example B20, 4-((1R,3aS,5aR,5bR,7aR,11aS,11bR,13aR,13bR)-5a,5b,8,8,11a-pentamethyl-3a-((2-(piperazin-1-yl)ethyl)amino)-1-(prop-1-en-2-yl)-2,3,3a,4,5,5a,5b,6,7,7a,8,11,11a,11b,12,13,13a,13b-octadecahydro-1H-cyclopenta[a]chrysen-9-yl)benzoic acid] was tested, and the EC50 was < 100 nM. In the case of C=C(C)[C@@H]1CC[C@]2(NCc3csc(C)n3)CC[C@]3(C)[C@H](CC[C@@H]4[C@@]5(C)CC=C(c6ccc(C(=O)O)cc6)C(C)(C)[C@@H]5CC[C@]43C)[C@@H]12 [Example 162, 4-((1R,3aS,5aR,5bR,7aR,11aS,11bR,13aR,13bR)-5a,5b,8,8,11a-pentamethyl-3a-((2-methylthiazol-4-yl)methylamino)-1-(prop-1-en-2-yl)-2,3,3a,4,5,5a,5b,6,7,7a,8,11,11a,11b,12,13,13a,13b-octadecahydro-1H-cyclopenta[a]chrysen-9-yl)benzoic acid], the EC50 is reported as < 100 nM. In the case of C=C(C)[C@@H]1CC[C@]2(NCCN3CCN(S(=O)(=O)C(C)C)CC3)CC[C@]3(C)[C@H](CC[C@@H]4[C@@]5(C)CC=C(c6ccc(C(=O)O)cc6)C(C)(C)[C@@H]5CC[C@]43C)[C@@H]12 [Example B26, 4-((1R,3aS,5aR,5bR,7aR,11aS,11bR,13aR,13bR)-3a-((2-(4-(isopropylsulfonyl)piperazin-1-yl)ethyl)amino)-5a,5b,8,8,11a-pentamethyl-1-(prop-1-en-2-yl)-2,3,3a,4,5,5a,5b,6,7,7a,8,11,11a,11b,12,13,13a,13b-octadecahydro-1H-cyclopenta[a]chrysen-9-yl)benzoic acid], the EC50 is reported as < 100 nM. C=C(C)[C@@H]1CC[C@]2(NS(=O)(=O)Cc3ccccn3)CC[C@]3(C)[C@H](CC[C@@H]4[C@@]5(C)CC=C(c6ccc(C(=O)O)cc6)C(C)(C)[C@@H]5CC[C@]43C)[C@@H]12 [Example 131, 4-((1R,3aS,5aR,5bR,7aR,11aS,11bR,13aR,13bR)-5a,5b,8,8,11a-pentamethyl-1-(prop-1-en-2-yl)-3a-(pyridin-2-ylmethylsulfonamido)-2,3,3a,4,5,5a,5b,6,7,7a,8,11,11a,11b,12,13,13a,13b-octadecahydro-1H-cyclopenta[a]chrysen-9-yl)benzoic acid] was tested, and the EC50 was < 100 nM. C=C(C)[C@@H]1CC[C@]2(NCCNc3ccc(C)nn3)CC[C@]3(C)[C@H](CC[C@@H]4[C@@]5(C)CC=C(c6ccc(C(=O)O)cc6)C(C)(C)[C@@H]5CC[C@]43C)[C@@H]12 [Example 194, 4-((1R,3aS,5aR,5bR,7aR,11aS,11bR,13aR,13bR)-5a,5b,8,8,11a-pentamethyl-3a-(2-(6-methylpyridazin-3-ylamino)ethylamino)-1-(prop-1-en-2-yl)-2,3,3a,4,5,5a,5b,6,7,7a,8,11,11a,11b,12,13,13a,13b-octadecahydro-1H-cyclopenta[a]chrysen-9-yl)benzoic acid] was tested, and the EC50 was < 100 nM. CC(C)[C@@H]1CC[C@]2(NC(=O)CN3CCS(=O)(=O)CC3)CC[C@]3(C)[C@H](CC[C@@H]4[C@@]5(C)CC=C(c6ccc(C(=O)O)cc6)C(C)(C)[C@@H]5CC[C@]43C)[C@@H]12 [Example 129, 4-((1S,3aS,5aR,5bR,7aR,11aS,11bR,13aR,13bR)-3a-(((1,1-dioxido-4-thiomorpholinyl)acetyl)amino)-1-isopropyl-5a,5b,8,8,11a-pentamethyl-2,3,3a,4,5,5a,5b,6,7,7a,8,11,11a,11b,12,13,13a,13b-octadecahydro-1H-cyclopenta[a]chrysen-9-yl)benzoic acid] was tested, and the EC50 was < 100 nM. In the case of C=C(C)[C@@H]1CC[C@]2(NCCN3CCN(S(=O)(=O)CS(C)(=O)=O)CC3)CC[C@]3(C)[C@H](CC[C@@H]4[C@@]5(C)CC=C(c6ccc(C(=O)O)cc6)C(C)(C)[C@@H]5CC[C@]43C)[C@@H]12 [Example B42, 4-((1R,3aS,5aR,5bR,7aR,11aS,11bR,13aR,13bR)-5a,5b,8,8,11a-pentamethyl-3a-((2-(4-(((methylsulfonyl)methyl)sulfonyl)piperazin-1-yl)ethyl)amino)-1-(prop-1-en-2-yl)-2,3,3a,4,5,5a,5b,6,7,7a,8,11,11a,11b,12,13,13a,13b-octadecahydro-1H-cyclopenta[a]chrysen-9-yl)benzoic acid], the EC50 is reported as < 100 nM. C=C(C)[C@@H]1CC[C@]2(NCCN3CCN(S(C)(=O)=O)CC3)CC[C@]3(C)[C@H](CC[C@@H]4[C@@]5(C)CC=C(c6ccc(C(=O)O)cc6)C(C)(C)[C@@H]5CC[C@]43C)[C@@H]12 [Example B15, 4-((1R,3aS,5aR,5bR,7aR,11aS,11bR,13aR,13bR)-5a,5b,8,8,11a-pentamethyl-3a-((2-(4-(methylsulfonyl)piperazin-1-yl)ethyl)amino)-1-(prop-1-en-2-yl)-2,3,3a,4,5,5a,5b,6,7,7a,8,11,11a,11b,12,13,13a,13b-octadecahydro-1H-cyclopenta[a]chrysen-9-yl)benzoic acid] was tested, and the EC50 was < 100 nM. With C=C(C)[C@@H]1CC[C@]2(NCCC(F)(F)F)CC[C@]3(C)[C@H](CC[C@@H]4[C@@]5(C)CC=C(c6ccc(C(=O)O)cc6)C(C)(C)[C@@H]5CC[C@]43C)[C@@H]12 [Example 182, 4-((1R,3aS,5aR,5bR,7aR,11aS,11bR,13aR,13bR)-5a,5b,8,8,11a-pentamethyl-1-(prop-1-en-2-yl)-3a-((3,3,3-trifluoropropyl)amino)-2,3,3a,4,5,5a,5b,6,7,7a,8,11,11a,11b,12,13,13a,13b-octadecahydro-1H-cyclopenta[a]chrysen-9-yl)benzoic acid] the EC50 was > 100 nM. C=C(C)[C@@H]1CC[C@]2(NC(=O)NCCN3CCS(=O)(=O)CC3)CC[C@]3(C)[C@H](CC[C@@H]4[C@@]5(C)CC=C(c6ccc(C(=O)O)cc6)C(C)(C)[C@@H]5CC[C@]43C)[C@@H]12 [Example 21, 4-((1R,3aS,5aR,5bR,7aR,11aS,11bR,13aR,13bR)-3a-(((2-(1,1-dioxido-4-thiomorpholinyl)ethyl)carbamoyl)amino)-1-isopropenyl-5a,5b,8,8,11a-pentamethyl-2,3,3a,4,5,5a,5b,6,7,7a,8,11,11a,11b,12,13,13a,13b-octadecahydro-1H-cyclopenta[a]chrysen-9-yl)benzoic acid] was tested, and the EC50 was < 100 nM. In the case of C=C(C)[C@@H]1CC[C@]2(N)CC[C@]3(C)[C@H](CC[C@@H]4[C@@]5(C)CC=C(c6ccc(C(=O)O)s6)C(C)(C)[C@@H]5CC[C@]43C)[C@@H]12 [Example B1, 5-((1R,3aS,5aR,5bR,7aR,11aS,11bR,13aR,13bR)-3a-amino-5a,5b,8,8,11a-pentamethyl-1-(prop-1-en-2-yl)-2,3,3a,4,5,5a,5b,6,7,7a,8,11,11a,11b,12,13,13a,13b-octadecahydro-1H-cyclopenta[a]chrysen-9-yl)thiophene-2-carboxylic acid], the EC50 is reported as < 100 nM. In the case of C=C(C)[C@@H]1CC[C@]2(NC(=O)CCCN(C)C)CC[C@]3(C)[C@H](CC[C@@H]4[C@@]5(C)CC=C(c6ccc(C(=O)O)cc6)C(C)(C)[C@@H]5CC[C@]43C)[C@@H]12 [Example 74, 4-((1R,3aS,5aR,5bR,7aR,11aS,11bR,13aR,13bR)-3a-(4-(dimethylamino)butanamido)-5a,5b,8,8,11a-pentamethyl-1-(prop-1-en-2-yl)-2,3,3a,4,5,5a,5b,6,7,7a,8,11,11a,11b,12,13,13a,13b-octadecahydro-1H-cyclopenta[a]chrysen-9-yl)benzoic acid], the EC50 is reported as < 100 nM. For C=C(C)[C@@H]1CC[C@]2(NCCN3CCN(C(C)(C)C)CC3)CC[C@]3(C)[C@H](CC[C@@H]4[C@@]5(C)CC=C(c6ccc(C(=O)O)cc6)C(C)(C)[C@@H]5CC[C@]43C)[C@@H]12 [Example B27, 4-((1R,3aS,5aR,5bR,7aR,11aS,11bR,13aR,13bR)-3a-((2-(4-(tert-butyl)piperazin-1-yl)ethyl)amino)-5a,5b,8,8,11a-pentamethyl-1-(prop-1-en-2-yl)-2,3,3a,4,5,5a,5b,6,7,7a,8,11,11a,11b,12,13,13a,13b-octadecahydro-1H-cyclopenta[a]chrysen-9-yl)benzoic acid], the EC50 was < 100 nM.
